Patent US20100098782A1, “USE OF SODIUM ACID SULFATE AS A DISINFECTANT” (JOHNSONDIVERSEY, INC., priority 2008, published 2010)
Several values for one entry are separate records, joined by “and”; a condition that tells them apart may be missing. Identical values can stand only once.

How the values were obtained:
[1] = test system: organisms on freshly killed whole birds (3M Aerobic Count Petrifilm); assay: Whole bird carcass dip test, aerobic count; details: for Organisms/Bird: individual birds
Description: In order to test the efficacy of the composition of the present invention for use in treating animal carcasses, freshly killed whole birds were dipped and completely immersed in 13 liters of treatment solution for 10 seconds. […] The growth medium was 3M Aerobic Count Petrifilm. The incubation was 2-3 days at 35° C. […] The same test was repeated using commercially available products, […]12, and Eden, comparing these with sodium acid sulfate and sodium acid sulfate in combination with citric acid.

Salmonella enteriditis = assay: Antimicrobial effectiveness, suspension contact test; assay type: cell-based
Description: In order to determine the antimicrobial effectiveness of the present invention, Salmonella enteriditis at 120,000,000 organisms per milliliter was contacted for 30 seconds, 1 minute, or 2 minutes, with 2,000 ppm SAS, or 4,000 ppm SAS at the indicated pH. The neutralizer was 0.2M Phosphate Buffer, pH 7.0, and the growth medium was 3M Aerobic Count Petrifilm using an incubation time of 4 days at 35° C.

[2] = test system: Escherichia coli, ATCC #11229; assay: Modification of the Germicidal and Detergent Sanitizing Action of Disinfectants (A.O.A.C.); assay type: cell-based; details: 4000 ppm, 25° C.
Description: The germicidal effectiveness of 4000 ppm of sodium acid sulfate was tested at various levels of pH. The pH of the solutions was adjusted by addition of sodium hydroxide. The test method was A Modification of the Germicidal and Detergent Sanitizing Action of Disinfectants, A.O.A.C., 17th Edition 2000. The test organism was Escherichia coli, ATCC #11229 (560,000 org/ml), which was contacted with the sodium acid sulfate for 10 seconds and 30 seconds at 25° C. The recovery medium was Tryptone Glucose Extract Agar with Asolectin and Tween 80. Phosphate Buffer 0.2M was employed.

[3] = 2400 ppm Lactic Acid, 10 seconds dip, pre 5 bird dip pH 1.80, post pH 1.96
[4] = 4800 ppm Lactic Acid, 10 seconds dip, pre 5 bird dip pH 1.80, post pH 1.96
[5] = 2000 ppm, pH 1.5, 30 seconds contact
[6] = 2000 ppm, pH 1.5, 2 minutes contact
[7] = 2000 ppm, pH 1.75, 30 seconds contact
[8] = 2000 ppm, pH 1.75, 1 minute contact
[9] = 2000 ppm, pH 2.0, 30 seconds contact
[10] = 2000 ppm, pH 2.0, 1 minute contact
[11] = 2000 ppm, pH 2.0, 2 minutes contact
[12] = 2000 ppm, pH 2.25, 30 seconds contact
[13] = 2000 ppm, pH 2.25, 1 minute contact
[14] = 2000 ppm, pH 2.25, 2 minutes contact
[15] = 2000 ppm, pH 2.5, 30 seconds contact
[16] = 2000 ppm, pH 2.5, 1 minute contact
[17] = 2000 ppm, pH 2.5, 2 minutes contact
[18] = 4000 ppm, pH 1.5, 30 seconds contact
[19] = 4000 ppm, pH 1.75, 30 seconds contact
[20] = 4000 ppm, pH 2.0, 30 seconds contact
[21] = 4000 ppm, pH 2.25, 30 seconds contact
[22] = 4000 ppm, pH 2.25, 1 minute contact
[23] = 4000 ppm, pH 2.25, 2 minutes contact
[24] = 4000 ppm, pH 2.5, 30 seconds contact
[25] = 4000 ppm, pH 2.5, 1 minute contact
[26] = 4000 ppm, pH 2.5, 2 minutes contact
[27] = 2000 ppm SAS, 10 seconds dip, pre 5 bird dip pH 1.60, post pH 1.78
[28] = 2000 ppm SAS, repeated test (Table 5)
[29] = 4000 ppm SAS, 10 seconds dip, pre 5 bird dip pH 1.56, post pH 1.75

Question: What does the source list for CC(O)C(=O)O (stereo not drawn) [Lactic Acid, lactic acid, reference compound]?
Answer: Average Organisms/Bird [1, 3]: 2,054,800 Organisms/Bird; Organisms/Bird [1, 3]: 600,000 Organisms/Bird and 1,074,000 Organisms/Bird and 2,120,000 Organisms/Bird and 3,240,000 Organisms/Bird (2×); % Reduction ([1]; 2400 ppm Lactic Acid, 10 seconds dip, pre 5 bird dip pH 1.80, post pH 1.96, vs no-treatment control): 10.8%; Average Organisms/Bird [1, 4]: 1,430,000 Organisms/Bird; Organisms/Bird [1, 4]: 1,000,000 Organisms/Bird and 1,800,000 Organisms/Bird and 1,400,000 Organisms/Bird and 1,520,000 Organisms/Bird; % Reduction ([1]; 4800 ppm Lactic Acid, 10 seconds dip, pre 5 bird dip pH 1.80, post pH 1.96, vs no-treatment control): 37.9%; antimicrobial effect in carcass dip (in words) ([1]; lactic acid itself (2400 and 4800 ppm)): relatively little antimicrobial effect

Question: What does the source list for O=S(=O)([O-])O.[Na+] [SAS, sodium acid sulfate]?
Answer: % Reduction (Salmonella enteriditis; [5]): 90.250% and 85.250%; Survivors (Salmonella enteriditis; [5]): 11,700,000 org/ml and 17,700,000 org/ml; % Reduction (Salmonella enteriditis; 2000 ppm, pH 1.5, 1 minute contact): 99.962% and 99.983%; % Reduction (Salmonella enteriditis; [6]): >99.999%; Survivors (Salmonella enteriditis; [6]): 10 org/ml and 20 org/ml; % Reduction (Salmonella enteriditis; [7]): <79.167%; Survivors (Salmonella enteriditis; [7]): >25,000,000 org/ml; % Reduction (Salmonella enteriditis; [8]): <97.917%; Survivors (Salmonella enteriditis; [8]): >25,000,000 org/ml; % Reduction (Salmonella enteriditis; 2000 ppm, pH 1.75, 2 minutes contact): 98.192% and 98.817%; % Reduction (Salmonella enteriditis; [9]): <79.167%; Survivors (Salmonella enteriditis; [9]): >25,000,000 org/ml; % Reduction (Salmonella enteriditis; [10]): <97.917%; Survivors (Salmonella enteriditis; [10]): >25,000,000 org/ml; % Reduction (Salmonella enteriditis; [11]): <97.917%; Survivors (Salmonella enteriditis; [11]): >25,000,000 org/ml; % Reduction (Salmonella enteriditis; [12]): <79.167%; Survivors (Salmonella enteriditis; [12]): >25,000,000 org/ml; % Reduction (Salmonella enteriditis; [13]): <97.917%; Survivors (Salmonella enteriditis; [13]): >25,000,000 org/ml; % Reduction (Salmonella enteriditis; [14]): <97.917%; Survivors (Salmonella enteriditis; [14]): >25,000,000 org/ml; % Reduction (Salmonella enteriditis; [15]): <79.167%; Survivors (Salmonella enteriditis; [15]): >25,000,000 org/ml; % Reduction (Salmonella enteriditis; [16]): <97.917%; Survivors (Salmonella enteriditis; [16]): >25,000,000 org/ml; % Reduction (Salmonella enteriditis; [17]): <97.917%; Survivors (Salmonella enteriditis; [17]): >25,000,000 org/ml; % Reduction (Salmonella enteriditis; [18]): 96.167% and 92.833%; Survivors (Salmonella enteriditis; [18]): 4,600,000 org/ml and 8,600,000 org/ml; % Reduction (Salmonella enteriditis; 4000 ppm, pH 1.5, 1 minute contact): 99.994% and 99.976%; % Reduction (Salmonella enteriditis; 4000 ppm, pH 1.5, 2 minutes contact): >99.999% and 99.997%; % Reduction (Salmonella enteriditis; [19]): 94.250% and 92.917%; Survivors (Salmonella enteriditis; [19]): 6,900,000 org/ml and 8,500,000 org/ml; % Reduction (Salmonella enteriditis; 4000 ppm, pH 1.75, 1 minute contact): 96.667% and 98.417%; % Reduction (Salmonella enteriditis; 4000 ppm, pH 1.75, 2 minutes contact): 98.933% and 98.833%; % Reduction (Salmonella enteriditis; [20]): 83.250% and 84.500%; Survivors (Salmonella enteriditis; [20]): 20,100,000 org/ml and 18,600,000 org/ml; % Reduction (Salmonella enteriditis; 4000 ppm, pH 2.0, 1 minute contact): 94.583% and 97.833%; % Reduction (Salmonella enteriditis; 4000 ppm, pH 2.0, 2 minutes contact): 96.167% and 91.417%; % Reduction (Salmonella enteriditis; [21]): <79.167%; Survivors (Salmonella enteriditis; [21]): >25,000,000 org/ml; % Reduction (Salmonella enteriditis; [22]): <79.167%; Survivors (Salmonella enteriditis; [22]): >25,000,000 org/ml; % Reduction (Salmonella enteriditis; [23]): <79.167%; Survivors (Salmonella enteriditis; [23]): >25,000,000 org/ml; % Reduction (Salmonella enteriditis; [24]): <79.167%; Survivors (Salmonella enteriditis; [24]): >25,000,000 org/ml; % Reduction (Salmonella enteriditis; [25]): <79.167%; Survivors (Salmonella enteriditis; [25]): >25,000,000 org/ml; % Reduction (Salmonella enteriditis; [26]): <79.167%; Survivors (Salmonella enteriditis; [26]): >25,000,000 org/ml; antimicrobial activity (in words) (Salmonella enteriditis; at less than pH 2.5 and, particularly less than 2.0): greatly enhanced; Average Organisms/Bird [1, 27]: 576,000 Organisms/Bird; Organisms/Bird [1, 27]: 584,000 Organisms/Bird and 536,000 Organisms/Bird and 660,000 Organisms/Bird and 520,000 Organisms/Bird and 580,000 Organisms/Bird; % Reduction ([1]; 2000 ppm SAS, 10 seconds dip, pre 5 bird dip pH 1.60, post pH 1.78, vs no-treatment control): 75.0%; Average Organisms/Bird [1, 28]: 246,400 Organisms/Bird; Organisms/Bird [1, 28]: 556,000 Organisms/Bird and 128,000 Organisms/Bird and 264,000 Organisms/Bird and 88,000 Organisms/Bird and 196,000 Organisms/Bird; % Reduction ([1]; 2000 ppm SAS, repeated test (Table 5), vs wash control): 88.7%; Average Organisms/Bird [1, 29]: 618,400 Organisms/Bird; Organisms/Bird [1, 29]: 396,000 Organisms/Bird and 528,000 Organisms/Bird and 392,000 Organisms/Bird and 476,000 Organisms/Bird and 1,300,000 Organisms/Bird; % Reduction ([1]; 4000 ppm SAS, 10 seconds dip, pre 5 bird dip pH 1.56, post pH 1.75, vs no-treatment control): 73.2%; performance in carcass dip (in words) ([1]; both 2000 ppm and 4000 ppm): perform well; % Reduction ([2]; pH 1.49, 10 seconds contact): 92.321%; Survivors ([2]; pH 1.49, 10 seconds contact): 43,000,000 org/ml; % Reduction ([2]; pH 1.49, 30 seconds contact): 92.804%; Survivors ([2]; pH 1.49, 30 seconds contact): 40,300,000 org/ml; % Reduction ([2]; pH 1.59, 10 seconds contact): 88.696%; Survivors ([2]; pH 1.59, 10 seconds contact): 63,300,000 org/ml; % Reduction ([2]; pH 1.59, 30 seconds contact): 89.732%; Survivors ([2]; pH 1.59, 30 seconds contact): 57,500,000 org/ml; % Reduction ([2]; pH 1.70, 10 seconds contact): 90.750%; Survivors ([2]; pH 1.70, 10 seconds contact): 51,800,000 org/ml; % Reduction ([2]; pH 1.70, 30 seconds contact): 91.785%; Survivors ([2]; pH 1.70, 30 seconds contact): 46,000,000 org/ml; % Reduction ([2]; pH 1.79, 10 seconds contact): 92.321%; Survivors ([2]; pH 1.79, 10 seconds contact): 43,000,000 org/ml; % Reduction ([2]; pH 1.79, 30 seconds contact): 93.839%; Survivors ([2]; pH 1.79, 30 seconds contact): 34,500,000 org/ml; % Reduction ([2]; pH 1.89, 10 seconds contact): 92.804%; Survivors ([2]; pH 1.89, 10 seconds contact): 40,300,000 org/ml; % Reduction ([2]; pH 1.89, 30 seconds contact): 94.375%; Survivors ([2]; pH 1.89, 30 seconds contact): 31,500,000 org/ml; % Reduction ([2]; pH 1.99, 10 seconds contact): 68.750%; Survivors ([2]; pH 1.99, 10 seconds contact): 175,000,000 org/ml; % Reduction ([2]; pH 1.99, 30 seconds contact): 81.785%; Survivors ([2]; pH 1.99, 30 seconds contact): 102,000,000 org/ml; % Reduction ([2]; pH 2.11, 10 seconds contact): 81.607%; Survivors ([2]; pH 2.11, 10 seconds contact): 103,000,000 org/ml; % Reduction ([2]; pH 2.11, 30 seconds contact): 82.857%; Survivors ([2]; pH 2.11, 30 seconds contact): 96,000,000 org/ml; % Reduction ([2]; pH 2.18, 10 seconds contact): 79.464%; Survivors ([2]; pH 2.18, 10 seconds contact): 115,000,000 org/ml; % Reduction ([2]; pH 2.18, 30 seconds contact): 98.089%; Survivors ([2]; pH 2.18, 30 seconds contact): 107,000,000 org/ml; % Reduction ([2]; pH 2.29, 10 seconds contact): 81.250%; Survivors ([2]; pH 2.29, 10 seconds contact): 105,000,000 org/ml; % Reduction ([2]; pH 2.29, 30 seconds contact): 86.250%; Survivors ([2]; pH 2.29, 30 seconds contact): 77,000,000 org/ml; % Reduction ([2]; pH 2.39, 10 seconds contact): 76.250%; Survivors ([2]; pH 2.39, 10 seconds contact): 133,000,000 org/ml; % Reduction ([2]; pH 2.39, 30 seconds contact): 77.142%; Survivors ([2]; pH 2.39, 30 seconds contact): 128,000,000 org/ml; % Reduction ([2]; pH 2.49, 10 seconds contact): 71.607%; Survivors ([2]; pH 2.49, 10 seconds contact): 159,000,000 org/ml; % Reduction ([2]; pH 2.49, 30 seconds contact): 72.142%; Survivors ([2]; pH 2.49, 30 seconds contact): 156,000,000 org/ml
